What was measured:
MDSCs = experiment: ex vivo differentiated MDSCs treated with compound, marker expression by flow cytometry (FIG. 1a); format: cell-based, mouse; conditions: oleuropein 50 μM
Description: (§1) Immunosuppressive myeloid cell subsets resembling tumor-infiltrating subsets (g-MDSCs, m-MDSCs and TAMs) were differentiated from mouse bone marrow following published procedures using conditioning medium produced by LLC tumor cells stably expressing GMCSF and MCSF cells. g- and m-MDSCs were purified using the myeloid-derived suppressor cell isolation kit (Miltenyi Biotec, Bergisch, Germany) according to manufacturer's recommendations. MDSCs and TAMs were seeded with 500 nM BML-275 or 50 μM oleuropein and incubated for seven days.
Surface and intracellular staining were carried out as described before with the following fluorochrome-conjugated antibody clones: AF488 anti-CD49d (R1-2), PE anti-CD4 (GK1.5), APCanti-CD8(53-6.7), brilliant Violet 510™ anti-I-A/I-E (M5/114.15.2,PE/Cyanine7anti-Ly-6G (1A8), and APC anti-CD80 (16-10A1) (Biolegend), FITC anti-IL-12 (C15.6) and BV421 anti-IL-2 (JES6-5H4) (BD Bioscience), APC-Vio® 770 anti-Ly-6C (REA796), PE REAfinity™ anti-F4/80 (REA126), and APC anti-CD68 (REA886) (Miltenyi), PerCP-Cyanine5.5 Anti-Human/Mouse CD11b (M1/70) (Tonbo), and AF488 anti-IFNγ (Clone XMG1.2) (BD Pharmigen). For human cells, it was used the following fluorochrome-conjugated antibodies: PerCP-Cy5.5-anti-CD11b (integrina alfa M) (M1/70), Violet Fluor 450 anti-CD14 antibody (61D3) (Tonbo), PE anti-CD115 (CSF-1R) (9-4D2-1E4) (Biolegend), PE-Cy™7 anti-CD11c (Clone B-ly6) (BD Bioscience), and APC anti-HLA-DR (REA517) (Miltenyi).
Data were collected using the FACSCanto Flow Cytometer (BD Biosciences) for ex vivo and in vitro experiments at Navarrabiomed Biomedical Research Center and Cyroflex LX flow cytometer (Beckman Counter). Data were analyzed with Flowjo.

g-MDSC = experiment: quantitative proteomics and Ingenuity Pathway Analysis of g-MDSC; format: cell-based, mouse
Description: as §1
A unique proteomic experiment was carried out with five biological replicates per sample (m-MDSC, g-MDSC and TAM). Cells were homogenized in a lysis buffer containing 7 M urea, 2 M thiourea 50 mM DTT. The homogenates were spun down at 14000 g for 1 h at 15 °C. Before proteomic analysis, protein extracts were diluted with Laemmli sample buffer in 100 μL and loaded into a 0.75 mm thick polyacrylamide gel with a 4% stacking gel casted over a 12.5% resolving gel. The run was stopped as soon as the front entered 3 mm into the resolving gel so that the whole proteome became concentrated in the stacking/resolving gel interface. Bands were stained with Coomassie Brilliant Blue, excised from the gel and protein enzymatic cleavage was carried out with trypsin (Promega; 1:20, w/w) at 37 °C for 16 h as previously described. Purification and concentration of peptides was performed using C18 Zip Tip Solid Phase Extraction (Millipore).
Peptide mixtures were separated by reverse phase chromatography using an UltiMate 3000 UHLPC System (Thermo Scientific) fitted with an Aurora packed emitter column (lonopticks, 25 cm×75 μm ID, 1.6 μm C18). Samples were first loaded for desalting and concentration into an Acclaim PepMap column (ThermoFisher, 0.5 cm×300 μm ID, 5 μm C18) packed with the same chemistry as the separating column. Mobile phases were 100% water 0.1% formic acid (FA) (buffer A) and 100% Acetonitrile 0.1% FA (buffer B). Column gradient was developed in a 120 min two step gradient from 5% B to 20% B in 90 min and 20% B to 32% B in 30 min. Column was equilibrated in 95% B for 10 min and 5% B for 20 min. During the whole process, the precolumn was in line with the column and the flow maintained all along the gradient at 300 nl/min. The column temperature was maintained at 40 °C using an integrated column oven (PRSO-V2, Sonation, Biberach, Germany) and interfaced online with the Orbitrap Exploris 480 MS. Spray voltage were set to 2 kV, funnel RF level at 40, and heated capillary temperature at 300 °C. For DDA experiments full MS resolutions were set to […] at m/z 200 and full MS AGC target was set to Standard with an IT mode Auto. Mass range was set to 375-1500. AGC target value for fragment spectra was set to Standard with a resolution of 15,000 and 3 seconds for cycle time. The intensity threshold was kept at 8E3. Isolation width was set at 1.4 m/z. Normalized collision energy was set at 30%. All data were acquired in centroid mode using positive polarity and peptide match was set to off, and isotope exclusion was on.
Raw files were processed with MaxQuant v1.6.17.0 using the integrated Andromeda Search engine. All data were searched against a target/decoy version of the mouse Uniprot Reference Proteome with March 2021 release. First search peptide tolerance was set to 20 ppm, main search peptide tolerance was set to 4.5 ppm. Fragment mass tolerance was set to 20 ppm. Trypsin was specified as enzyme, […] carbamidomethylation of cysteine was specified as fixed modification and peptide N-terminal acetylation, oxidation of methionine, deamidation of asparagine and glutamine and pyro-glutamate formation from glutamine and glutamate were considered variable modifications with a total of two variable modifications per peptide. […]

C/C=C1/[C@H](O[C@@H]2O[C@H](CO)[C@@H](O)[C@H](O)[C@H]2O)OC=C(C(=O)OC)[C@H]1CC(=O)OCCc1ccc(O)c(O)c1 [oleuropein]
polarization of MDSCs (MDSCs): polarized MDSCs and TAMs into activated myeloid cells | IL-12 (MDSCs; MDSCs): significant increase | AMPK signaling (g-MDSC; IPA, g-MDSC): upregulation | EIF2 signalling (g-MDSC; IPA, g-MDSC): downmodulated | NET signaling (g-MDSC; IPA, g-MDSC): upregulation | estrogen receptor signalling (g-MDSC; IPA, g-MDSC): downmodulated | fatty acid beta-oxidation (g-MDSC; IPA, g-MDSC): activated | fmIP signaling (g-MDSC; IPA, g-MDSC): upregulation | granzyme A signalling (g-MDSC; IPA, g-MDSC): downmodulated | mTOR signaling (g-MDSC; IPA, g-MDSC): upregulation | phospholipids (g-MDSC; IPA, g-MDSC): decrease | upstream regulator E2f3 (g-MDSC; IPA, g-MDSC): decrease | upstream regulator Eif6 (g-MDSC; IPA, g-MDSC): increase | upstream regulator Stat4 (g-MDSC; IPA, g-MDSC): inhibited | upstream regulator Tbk1 (g-MDSC; IPA, g-MDSC): inhibited | cellular programming / proteome of g-MDSC (g-MDSC; g-MDSC treated with oleuropein): acquiring an entirely different proteome | differentiation of myeloid cells to g-MDSC (g-MDSC; g-MDSC treated with oleuropein): prevented
